Reference: patent US10750743B2, “Pyridazinone herbicides” (E.I. DU PONT DE NEMOURS AND COMPANY, priority 2015, dated 2020)

How the values were obtained:
Format in all cases: in vivo
[1] = system: pigweed (Amaranthus retroflexus); test: Test A postemergence application, visual injury rating; conditions: for pest or weed control at 125 g/ha: 125 g ai/ha
Summary of the method: (§1)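 Injury ratings, 0 (no effect) to 100 (complete control), were scored visually versus untreated plants roughly 10 d after treatment under greenhouse conditions. Treatments used surfactant-containing solvent formulations, sprayed onto soil preemergence or onto one- to two-leaf seedlings (2-10 cm) postemergence, grown in a loam-sand mix.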

[2] = system: blackgrass (Alopecurus myosuroides); test: as above; conditions: Alopecurus myosuroides, post-emergence, 240 h, 0 to 100 scale, 0 no effect, 100 complete control, read-out: Blackgrass plant response rating; for pest or weed control at 125 g/ha: 125 g ai/ha
Summary of the method: as §1

[3] = system: wheat (Triticum aestivum); test: as above; conditions: for plant injury at 125 g/ha: 125 g ai/ha
Summary of the method: as §1

[4] = system: ragweed (common ragweed, Ambrosia elatior); test: as above; conditions: for pest or weed control at 125 g/ha: 125 g ai/ha
Summary of the method: as §1

[5] = system: ryegrass, It. (Italian ryegrass, Lolium multiflorum); test: as above; conditions: for pest or weed control at 125 g/ha: 125 g ai/ha
Summary of the method: as §1

[6] = system: galium (catchweed bedstraw, Galium aparine); test: as above; conditions: for pest or weed control at 125 g/ha: 125 g ai/ha
Summary of the method: as §1

[7] = system: corn (Zea mays); test: as above; conditions: for plant injury at 125 g/ha: 125 g ai/ha
Summary of the method: as §1

[8] = system: barnyardgrass (Echinochloa crus-galli); test: as above; conditions: Echinochloa crus-galli, post-emergence, 240 h, 0 to 100 scale, 0 no effect, 100 complete control, read-out: Barnyardgrass plant response rating; for pest or weed control at 125 g/ha: 125 g ai/ha
Summary of the method: as §1

[9] = system: foxtail, giant (giant foxtail, Setaria faberii); test: Test A preemergence, directed soil spray, visual injury rating; conditions: Setaria faberi, pre-emergence, 240 h, 0 is no effect, 100 is complete control, read-out: Plant response rating (0 to 100 scale), Foxtail, Giant; for pest or weed control at 125 g/ha: 125 g ai/ha
Summary of the method: as §1

[10] = system: pigweed (Amaranthus retroflexus); test: as above; conditions: Amaranthus retroflexus, pre-emergence, 240 h, 0 is no effect, 100 is complete control, read-out: Plant response rating (0 to 100 scale), Pigweed; for pest or weed control at 125 g/ha: 125 g ai/ha
Summary of the method: as §1

[11] = system: ragweed (common ragweed, Ambrosia elatior); test: as above; conditions: Ambrosia artemisiifolia, pre-emergence, 240 h, 0 is no effect, 100 is complete control, read-out: Plant response rating (0 to 100 scale), Ragweed; for pest or weed control at 125 g/ha: 125 g ai/ha
Summary of the method: as §1

[12] = system: ryegrass, It. (Italian ryegrass, Lolium multiflorum); test: as above; conditions: Lolium multiflorum, pre-emergence, 240 h, 0 is no effect, 100 is complete control, read-out: Plant response rating (0 to 100 scale), Ryegrass, It.; for pest or weed control at 125 g/ha: 125 g ai/ha
Summary of the method: as §1

[13] = system: kochia (Kochia scoparia); test: as above; conditions: Bassia scoparia, pre-emergence, 240 h, 0 is no effect, 100 is complete control, read-out: Plant response rating (0 to 100 scale), Kochia; for pest or weed control at 125 g/ha: 125 g ai/ha
Summary of the method: as §1

[14] = system: barnyardgrass (Echinochloa crus-galli); test: as above; conditions: Echinochloa crus-galli, pre-emergence, 240 h, 0 is no effect, 100 is complete control, read-out: Plant response rating (0 to 100 scale), Barnyardgrass; for pest or weed control at 125 g/ha: 125 g ai/ha
Summary of the method: as §1

[15] = system: ducksalad (Heteranthera limosa); test: Test B flooded paddy test, visual rating; conditions: Heteranthera limosa, 360 h; Flood, 250 g ai/ha, applied to paddy water, rated after 13 to 15 d; read-out: Ducksalad plant response rating (0 to 100 scale, 0 is no effect, 100 is complete control)
Summary of the method: (§2)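 Ratings use a 0-100 visual scale, where 100 is complete control, and compare treated plants with controls after 13 to 15 d of greenhouse growth. Compound went straight into paddy water kept 3 cm over the soil surface, applied to seedlings at the 2-leaf stage.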

[16] = system: sedge, umbrella (small-flower umbrella sedge, Cyperus difformis); test: Test B flooded paddy test, visual rating; conditions: Cyperus difformis, 360 h; Flood, 250 g ai/ha, applied to paddy water, rated after 13 to 15 d; read-out: Sedge, Umbrella plant response rating (0 to 100 scale, 0 is no effect, 100 is complete control)
Summary of the method: as §2

[17] = system: rice (Oryza sativa); test: Test B flooded paddy test, visual rating; conditions: Oryza sativa, 360 h; Flood, 250 g ai/ha, applied to paddy water, rated after 13 to 15 d; read-out: Rice plant response rating (0 to 100 scale, 0 is no effect, 100 is complete control)
Summary of the method: as §2

[18] = system: barnyardgrass (Echinochloa crus-galli); test: Test B flooded paddy test, visual rating; conditions: Echinochloa crus-galli, 360 h; Flood, 250 g ai/ha, applied to paddy water, rated after 13 to 15 d; read-out: Barnyardgrass plant response rating (0 to 100 scale, 0 is no effect, 100 is complete control)
Summary of the method: as §2

[19] = Amaranthus retroflexus, post-emergence, 240 h, 0 to 100 scale, 0 no effect, 100 complete control, read-out: Pigweed plant response rating
[20] = Triticum aestivum, post-emergence, 240 h, 0 to 100 scale, 0 no effect, 100 complete control, read-out: Wheat plant response rating
[21] = Ambrosia artemisiifolia, post-emergence, 240 h, 0 to 100 scale, 0 no effect, 100 complete control, read-out: Ragweed plant response rating
[22] = Lolium multiflorum, post-emergence, 240 h, 0 to 100 scale, 0 no effect, 100 complete control, read-out: Ryegrass, It. plant response rating
[23] = Galium, post-emergence, 240 h, 0 to 100 scale, 0 no effect, 100 complete control, read-out: Galium plant response rating
[24] = Zea mays, post-emergence, 240 h, 0 to 100 scale, 0 no effect, 100 complete control, read-out: Corn plant response rating
[25] = 31 g ai/ha, 0 is no effect, 100 is complete control

Compound | pest or weed control at 125 g/ha [1, 19] | pest or weed control at 125 g/ha [2] | plant injury at 125 g/ha [3, 20] | pest or weed control at 125 g/ha [4, 21] | pest or weed control at 125 g/ha [5, 22] | pest or weed control at 125 g/ha [6, 23] | plant injury at 125 g/ha [7, 24] | pest or weed control at 125 g/ha [8] | pest or weed control at 125 g/ha [9] | pest or weed control at 125 g/ha [10] | pest or weed control at 125 g/ha [11] | pest or weed control at 125 g/ha [12] | pest or weed control at 125 g/ha [13] | pest or weed control at 125 g/ha [14] | pest or weed control at 250 g/ha [15] | pest or weed control at 250 g/ha [16] | plant injury at 250 g/ha [17] | pest or weed control at 250 g/ha [18] | further results
Cc1ccc2sccc2c1-c1c(O)c(C)nn(C)c1=O [Compound 29, 5-hydroxy-2,6-dimethyl-4-(5-methylbenzo[b]thien-4-yl)-3(2H)-pyridazinone] | 90% | 70% | 20% | 80% | 100% | 90% | 20% | 20% | 10% | 40% | 30% | 90% | 20% | 10% | 0% | 0% | 0% | 0% | pest or weed control at 500 g/ha ([1]; Amaranthus retroflexus, post-emergence, 240 h, 500 g ai/ha, 0 to 100 scale, 0 no effect, 100 complete control, read-out: Pigweed plant response rating): 100%; pest or weed control at 500 g/ha ([2]; 500 g ai/ha): 80%; plant injury at 500 g/ha ([3]; Triticum aestivum, post-emergence, 240 h, 500 g ai/ha, 0 to 100 scale, 0 no effect, 100 complete control, read-out: Wheat plant response rating): 30%; pest or weed control at 500 g/ha ([4]; Ambrosia artemisiifolia, post-emergence, 240 h, 500 g ai/ha, 0 to 100 scale, 0 no effect, 100 complete control, read-out: Ragweed plant response rating): 80%; pest or weed control at 500 g/ha ([5]; Lolium multiflorum, post-emergence, 240 h, 500 g ai/ha, 0 to 100 scale, 0 no effect, 100 complete control, read-out: Ryegrass, It. plant response rating): 90%; pest or weed control at 500 g/ha ([6]; Galium, post-emergence, 240 h, 500 g ai/ha, 0 to 100 scale, 0 no effect, 100 complete control, read-out: Galium plant response rating): 100%; plant injury at 500 g/ha ([7]; Zea mays, post-emergence, 240 h, 500 g ai/ha, 0 to 100 scale, 0 no effect, 100 complete control, read-out: Corn plant response rating): 50%; pest or weed control at 500 g/ha ([8]; 500 g ai/ha): 70%; pest or weed control at 500 g/ha ([9]; 500 g ai/ha): 90%; pest or weed control at 500 g/ha ([10]; 500 g ai/ha): 100%; pest or weed control at 500 g/ha ([11]; 500 g ai/ha): 90%; pest or weed control at 500 g/ha ([12]; 500 g ai/ha): 100%; pest or weed control at 500 g/ha ([13]; 500 g ai/ha): 90%; pest or weed control at 500 g/ha ([14]; 500 g ai/ha): 90%
Cn1nc(Cl)c(O)c(-c2nccc3ccccc23)c1=O [Compound 67, 6-chloro-5-hydroxy-4-(1-isoquinolinyl)-2-methyl-3(2H)-pyridazinone] | 50% | 0% | 0% | 10% | 60% | 40% | 0% | 0% | 0% | 20% | 0% | 50% | 0% | 0% | 0% | 75% | 0% | 0% | Plant response rating (0 to 100 scale), Pigweed [1, 25]: 40; pest or weed control at 31 g/ha ([2]; 31 g ai/ha): 0%; Plant response rating (0 to 100 scale), Wheat [3, 25]: 0; Plant response rating (0 to 100 scale), Ragweed [4, 25]: 0; Plant response rating (0 to 100 scale), Ryegrass, It. [5, 25]: 20; Plant response rating (0 to 100 scale), Galium [6, 25]: 20; Plant response rating (0 to 100 scale), Corn [7, 25]: 0; pest or weed control at 31 g/ha ([8]; 31 g ai/ha): 0%; pest or weed control at 31 g/ha ([9]; 31 g ai/ha): 0%; pest or weed control at 31 g/ha ([10]; 31 g ai/ha): 10%; pest or weed control at 31 g/ha ([11]; 31 g ai/ha): 0%; pest or weed control at 31 g/ha ([12]; 31 g ai/ha): 10%; pest or weed control at 31 g/ha ([13]; 31 g ai/ha): 0%; pest or weed control at 31 g/ha ([14]; 31 g ai/ha): 0%
